We go through one compound from patent US20040063611A1, “Pharmaceutical preparation” (Merck Patent GmbH, priority 1998, published 2004).

The nature of data set [1]: In-vitro release Test 1 (phosphate buffer pH 7.4). Type of data set: physicochemical. The note with it: micronized, particle size between 5 μm and 25 μm (to 95%). An excerpt:
(§1) In the Federal Register Vol. 62, No. 15, Aug. 14, 1997; page 43535, the Department of Health and Human. Services, Food and Drug Administration, published the facts that the products available on the U.S. market which comprise levothyroxine sodium and are orally administered have stability problems and therefore must be present in an up to […] excess dose and that manufacturers must develop appropriate novel administration forms. The requirements on in-vitro release for levothyroxine Na tablets have furthermore been increased. The monograph draft version of the Pharmacopeial Forum (Pharm. Preview, 1995, 21, 1459-1461) proposes, in addition to the valid Test 1 (phosphate buffer pH 7.4, in 80 minutes >55%) to approve Test 2 (water in 45 minutes >70%).
(§2) With a particle size between 5 μm and 25 μm (to 95%) , however, a release of the active compound takes place in Test 1 to >90% (phosphate buffer) and in Test 2 to >80% (water).

The nature of data set [2]: In-vitro release Test 2 (water). Type of data set: physicochemical. The settings on record: micronized, particle size between 5 μm and 25 μm (to 95%).
Excerpt: as §1, §2

The conditions of data set [3]: non-micronized (customarily), cited from earlier work.

Take `N[C@@H](Cc1cc(I)c(Oc2cc(I)c(O)c(I)c2)c(I)c1)C(=O)O` [Levothyroxine sodium, levothyroxine sodium]: in data set [1], the “release of the active compound in Test 1” value is listed as above 90%. For the same compound, in data set [2], the “release of the active compound in Test 2” value is above 80%. Also, the solubility in ethanol result in data set [3] (ethanol) was “very sparingly soluble”. Further, the solubility in water entry in data set [3] (water) is “very sparingly soluble”.
